In PubChem BioAssay (NCI):
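Tested at 5 concentrations; 48 h exposure; 96-well plates; endpoints linearly interpolated, else capped at highest concentration. GI50 is the concentration that inhibits growth by half. TGI is the concentration that stops growth completely.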

Key:
Assay in all cases: DTP human tumour cell line panel, 48 h
786-0 renal = tested on: 786-0 renal
A498 renal = tested on: A498 renal
A549 NSCLC = tested on: A549 NSCLC
ACHN renal = tested on: ACHN renal
BT-549 breast = tested on: BT-549 breast
CCRF-CEM leukemia = tested on: CCRF-CEM leukemia
COLO 205 colon = tested on: COLO 205 colon
DU-145 prostate = tested on: DU-145 prostate
EKVX NSCLC = tested on: EKVX NSCLC
HCC-2998 colon = tested on: HCC-2998 colon
HCT-116 colon = tested on: HCT-116 colon
HCT-15 colon = tested on: HCT-15 colon
HL-60(TB) leukemia = tested on: HL-60(TB) leukemia
HOP-62 NSCLC = tested on: HOP-62 NSCLC
HOP-92 NSCLC = tested on: HOP-92 NSCLC
HS 578T breast = tested on: HS 578T breast
HT29 colon = tested on: HT29 colon
IGROV1 ovarian = tested on: IGROV1 ovarian
K-562 leukemia = tested on: K-562 leukemia
KM12 colon = tested on: KM12 colon
LOX IMVI melanoma = tested on: LOX IMVI melanoma
M14 melanoma = tested on: M14 melanoma
MALME-3M melanoma = tested on: MALME-3M melanoma
MCF7 breast = tested on: MCF7 breast
MDA-MB-231 breast = tested on: MDA-MB-231 breast
MDA-MB-435 = tested on: MDA-MB-435
MOLT-4 leukemia = tested on: MOLT-4 leukemia
NCI-H226 lung = tested on: NCI-H226 lung
NCI-H23 lung = tested on: NCI-H23 lung
NCI-H460 lung = tested on: NCI-H460 lung
NCI-H522 lung = tested on: NCI-H522 lung
NCI/ADR-RES ovarian = tested on: NCI/ADR-RES ovarian
OVCAR-3 ovarian = tested on: OVCAR-3 ovarian
OVCAR-4 ovarian = tested on: OVCAR-4 ovarian
OVCAR-5 ovarian = tested on: OVCAR-5 ovarian
OVCAR-8 ovarian = tested on: OVCAR-8 ovarian
PC-3 prostate = tested on: PC-3 prostate
RPMI-8226 leukemia = tested on: RPMI-8226 leukemia
RXF 393 renal = tested on: RXF 393 renal
SF-268 CNS = tested on: SF-268 CNS
SF-295 CNS = tested on: SF-295 CNS
SF-539 CNS = tested on: SF-539 CNS
SK-MEL-2 melanoma = tested on: SK-MEL-2 melanoma
SK-MEL-28 melanoma = tested on: SK-MEL-28 melanoma
SK-MEL-5 melanoma = tested on: SK-MEL-5 melanoma
SK-OV-3 ovarian = tested on: SK-OV-3 ovarian
SN12C renal = tested on: SN12C renal
SNB-19 CNS = tested on: SNB-19 CNS
SNB-75 CNS = tested on: SNB-75 CNS
SR leukemia = tested on: SR leukemia
SW-620 colon = tested on: SW-620 colon
T-47D breast = tested on: T-47D breast
TK-10 renal = tested on: TK-10 renal
U251 CNS = tested on: U251 CNS
UACC-257 melanoma = tested on: UACC-257 melanoma
UACC-62 melanoma = tested on: UACC-62 melanoma
UO-31 renal = tested on: UO-31 renal

Compound CC[n+]1c(/C=C/C=C2\N(C)c3ccccc3C2(C)C)sc2ccccc21 has a GI50 (786-0 renal) of 4.33 µM, a TGI (786-0 renal) of 8.38 µM and a GI50 (A498 renal) of 5.04 µM. The TGI (A498 renal) was 12 µM, the GI50 (A549 NSCLC) was 4.77 µM and the TGI (A549 NSCLC) was 10 µM. For the same compound, the GI50 (ACHN renal) was 4.1 µM, the TGI (ACHN renal) was 8.21 µM and the GI50 (BT-549 breast) was 4.3 µM. For the same compound, the TGI (BT-549 breast) was 8.6 µM, the GI50 (CCRF-CEM leukemia) was 4.96 µM and the TGI (CCRF-CEM leukemia) was 18.1 µM. It also gave a GI50 (COLO 205 colon) of 4.47 µM, a TGI (COLO 205 colon) of 9.13 µM and a GI50 (DU-145 prostate) of 4.15 µM. It also gave a TGI (DU-145 prostate) of 7.76 µM, a GI50 (EKVX NSCLC) of 4.39 µM and a TGI (EKVX NSCLC) of 12.8 µM. The GI50 (HCC-2998 colon) was 3.86 µM, the TGI (HCC-2998 colon) was 7.81 µM and the GI50 (HCT-116 colon) was 4.15 µM. The TGI (HCT-116 colon) was 8.16 µM, the GI50 (HCT-15 colon) was 4.54 µM and the TGI (HCT-15 colon) was 9.67 µM. It also gave a GI50 (HL-60(TB) leukemia) of 5.16 µM, a TGI (HL-60(TB) leukemia) of 12.1 µM and a GI50 (HOP-62 NSCLC) of 4.47 µM. The TGI (HOP-62 NSCLC) was 9.31 µM, the GI50 (HOP-92 NSCLC) was 3.54 µM and the TGI (HOP-92 NSCLC) was 10.8 µM. For the same compound, the GI50 (HS 578T breast) was 5.63 µM, the TGI (HS 578T breast) was 20.1 µM and the GI50 (HT29 colon) was 4.74 µM. The TGI (HT29 colon) was 9.74 µM, the GI50 (IGROV1 ovarian) was 4.68 µM and the TGI (IGROV1 ovarian) was 10.7 µM. For the same compound, the GI50 (K-562 leukemia) was 4.34 µM, the TGI (K-562 leukemia) was 9.43 µM and the GI50 (KM12 colon) was 4.46 µM. It also gave a TGI (KM12 colon) of 8.7 µM, a GI50 (LOX IMVI melanoma) of 4 µM and a TGI (LOX IMVI melanoma) of 8.48 µM. It also gave a GI50 (M14 melanoma) of 4.03 µM, a TGI (M14 melanoma) of 8.33 µM and a GI50 (MALME-3M melanoma) of 4.28 µM. It also gave a TGI (MALME-3M melanoma) of 8.1 µM, a GI50 (MCF7 breast) of 4.42 µM and a TGI (MCF7 breast) of 10.4 µM. The GI50 (MDA-MB-231 breast) was 4.5 µM, the TGI (MDA-MB-231 breast) was 10.3 µM and the GI50 (MDA-MB-435) was 3.98 µM. The TGI (MDA-MB-435) was 7.66 µM, the GI50 (MOLT-4 leukemia) was 4.44 µM and the TGI (MOLT-4 leukemia) was 11.6 µM. The GI50 (NCI-H226 lung) was 4.55 µM, the TGI (NCI-H226 lung) was 12.2 µM and the GI50 (NCI-H23 lung) was 2.75 µM. For the same compound, the TGI (NCI-H23 lung) was 7.09 µM, the GI50 (NCI-H460 lung) was 4.5 µM and the TGI (NCI-H460 lung) was 8.93 µM. For the same compound, the GI50 (NCI-H522 lung) was 3.8 µM, the TGI (NCI-H522 lung) was 9.03 µM and the GI50 (NCI/ADR-RES ovarian) was 4.26 µM. The TGI (NCI/ADR-RES ovarian) was 8.9 µM, the GI50 (OVCAR-3 ovarian) was 3.97 µM and the TGI (OVCAR-3 ovarian) was 7.52 µM. For the same compound, the GI50 (OVCAR-4 ovarian) was 3.85 µM, the TGI (OVCAR-4 ovarian) was 7.19 µM and the GI50 (OVCAR-5 ovarian) was 4.82 µM. The TGI (OVCAR-5 ovarian) was 11.7 µM, the GI50 (OVCAR-8 ovarian) was 4.31 µM and the TGI (OVCAR-8 ovarian) was 8.54 µM. It also gave a GI50 (PC-3 prostate) of 4.29 µM, a TGI (PC-3 prostate) of 11.3 µM and a GI50 (RPMI-8226 leukemia) of 2.99 µM. It also gave a TGI (RPMI-8226 leukemia) of 10.1 µM, a GI50 (RXF 393 renal) of 4.33 µM and a TGI (RXF 393 renal) of 10.3 µM. The GI50 (SF-268 CNS) was 4.43 µM, the TGI (SF-268 CNS) was 8.92 µM and the GI50 (SF-295 CNS) was 3.88 µM. It also gave a TGI (SF-295 CNS) of 7.55 µM, a GI50 (SF-539 CNS) of 4 µM and a TGI (SF-539 CNS) of 7.5 µM. The GI50 (SK-MEL-2 melanoma) was 5.23 µM, the TGI (SK-MEL-2 melanoma) was 11 µM and the GI50 (SK-MEL-28 melanoma) was 4.17 µM. The TGI (SK-MEL-28 melanoma) was 7.97 µM, the GI50 (SK-MEL-5 melanoma) was 3.79 µM and the TGI (SK-MEL-5 melanoma) was 7.33 µM. The GI50 (SK-OV-3 ovarian) was 5.71 µM, the TGI (SK-OV-3 ovarian) was 13.9 µM and the GI50 (SN12C renal) was 4.16 µM. For the same compound, the TGI (SN12C renal) was 8 µM, the GI50 (SNB-19 CNS) was 4.1 µM and the TGI (SNB-19 CNS) was 7.8 µM. The GI50 (SNB-75 CNS) was 3.7 µM, the TGI (SNB-75 CNS) was 7.5 µM and the GI50 (SR leukemia) was 3.32 µM. For the same compound, the TGI (SR leukemia) was 9.32 µM, the GI50 (SW-620 colon) was 4.19 µM and the TGI (SW-620 colon) was 8.27 µM. The GI50 (T-47D breast) was 4.65 µM, the TGI (T-47D breast) was 11.8 µM and the GI50 (TK-10 renal) was 5.06 µM. It also gave a TGI (TK-10 renal) of 13.2 µM, a GI50 (U251 CNS) of 3.85 µM and a TGI (U251 CNS) of 7.61 µM. The GI50 (UACC-257 melanoma) was 4.64 µM, the TGI (UACC-257 melanoma) was 9.02 µM and the GI50 (UACC-62 melanoma) was 4.03 µM. The TGI (UACC-62 melanoma) was 8.32 µM, the GI50 (UO-31 renal) was 3.55 µM and the TGI (UO-31 renal) was 7.26 µM.
